Assay results: patent US10160972B2, “Methods and materials for treating cancer” (Mayo Foundation for Medical Education and Research, priority 2012, dated 2018)

Tests used:
[1] = system: BCJ4T bladder cancer cells; assay: Cell number growth inhibition assay; type: cell-based, human
Description: (§1) A number of cancer cell lines were tested to determine whether SCD1 protein expression correlates with growth inhibition of an SCD1 inhibitor in human cancer cell lines.
(§2) Cells (20,000/ml) were plated in 12 well cell culture plates, allowed to attach and treated with the indicated dose of SCD1 inhibitor ([…]) or standard of care (gemcitabine). Cell number was counted using a Coulter Counter. As show in FIG. 7, the data are expressed as percent of DMSO control. Each value represents triplicates. Western analysis for SCD1 protein expression was performed on each cell line with beta-actin as the loading control.
(§3) The following cell lines were studied using a similar method as that described above.

[2] = system: HT1376 bladder cancer cells; assay: Cell number growth inhibition assay; type: cell-based, human
Description: as §1, §2, §3

T24 bladder cancer cells = assay: Cell number growth inhibition assay; type: cell-based, human
Description: as §1, §2, §3

[3] = system: SNU449 liver cancer cells; assay: Cell number growth inhibition assay; type: cell-based, human; conditions: SNU449 liver cancer cells
Description: as §1, §2, §3

[4] = system: A549 nonsmall cell lung cancer cells; assay: Cell number growth inhibition assay; type: cell-based, human
Description: as §1, §2, §3

[5] = system: HOV TAX2 ovarian cancer cells; assay: Cell number growth inhibition assay; type: cell-based, human
Description: as §1, §2, §3

[6] = system: KTC3 thyroid cancer cells; assay: Cell number growth inhibition assay; type: cell-based, human
Description: as §1, §2, §3

FF1 cells = assay: Cell number growth inhibition assay; type: cell-based, human
Description: A number of cancer cell lines were tested to determine whether SCD1 protein expression correlates with growth inhibition of an SCD1 inhibitor in human cancer cell lines. […] Cell number was counted using a Coulter Counter. […] Each value represents triplicates.

A375 melanoma cells = assay: Cell number growth inhibition assay; type: cell-based, human
Description: as §1, §2, §3

Mela 11 melanoma cells = assay: Cell number growth inhibition assay; type: cell-based, human
Description: as §1, §2, §3

[7] = system: A498, Caki1, Caki2, and ACHN ccRCC cell lines; assay: Temsirolimus dose out, cell proliferation; type: cell-based, human; conditions: monotherapy, four ccRCC cell lines; no dose response could be determined
Description: (§4) Drug stocks were prepared in DMSO. Monotherapeutic treatment identified drug dose-response. […] Temsirolimus dosing was performed as described in the text.
After identifying appropriate cell proliferative dose responses for pazopanib and sunitinib in four ccRCC cell lines including A498, Caki1, Caki2, and ACHN, both TKIs were dosed in combination with A939572 up to approximately the IC50 dose for each drug in the Caki1 and the A498 cell lines. […] Combinatorial treatments were therefore done using a fixed dose of Tem (0.1 nM, 1 nM, and 10 nM) combined with a dose range of A939572 up to the IC50 in Caki1, A498, Caki2 and ACHN cells.

A498 ccRCC xenografts [8] = assay: Western blot of CHOP in xenograft tumor tissue; type: in vivo, athymic nude (nu/nu) mice; conditions: normalized to β-actin, tumor tissue samples
Description: (§5) Protein extracts, electrophoresis, and membrane transfers were prepared as previously described (Copland J A, Marlow L A, Kurakata S, Fujiwara K, Wong A K, Kreinest P A, et al. Novel highaffinity PPARgamma agonist alone and in combination with paclitaxel inhibits human anaplastic thyroid carcinoma tumor growth via p21WAF1/CIP1. Oncogene. 2006; 25:2304-17). Primary antibodies included SCD1, PARP, DDIT3, BiP, sXBP1, and β-actin. A Supersignal chemiluminescent kit was used to perform detection.

SCD1 [9] = conditions: breast cancer cells, previously reported; cited from earlier work
A498 ccRCC xenografts [10] = assay: IHC analysis of resected xenograft tumors
Description: The TMAs were mounted on slides from paraffin-embedded blocks according to IHC procedure and samples were blocked with Diluent that contained Background Reducing Components (Dakocytomation) for 30 min and then probed for SCD1, Ki67, Caspase-3, CD31, phospho-mTOR, DDIT3, and XBP1. […] Stain scoring was done using algorithms generated with Imagescope software created by a histologist. H-scores were calculated based upon signal intensity (0-3+) using the formula: [(1+%×1)+(2+%×2)+(3+%×3)], intensity (I)-scores were calculated by dividing signal intensity by area, and nuclear (N)-scores were calculated by dividing % positive nuclei by total nuclei examined per area. Cases where insufficient tumor tissue presented were excluded from the study. 20× images were obtained using Scanscope XT and Imagescope software.
IHC analysis of tumors resected from each treatment group was analyzed for proliferation, angiogenesis, and cell death (FIG. 6B).

SCD1 [11] = assay: Lentiviral shRNA knockdown of SCD1 in ccRCC cell lines (Caki1 and A498); type: cell-based, human
Description: (§6) MISSION shRNA pLK0.1 constructs were used to make self-inactivating shRNA lentiviruses for human SCD1 (clones: NM_005063.3-1200s1c1[shSCD1200], NM_005063.3-780s1c1[shSCD780]), and a non-target (NT) random scrambled sequence control (SHC002). Transfection reagents Lipofectamine 2000 and ViraPower were used to generate lentiviruses using HEK293FT viral progenitor cells. ccRCC and NRE cells were incubated with lentivirus plus 5 μg/mL polybrene for 24 hrs prior to clonal selection with Puromycin.
(§7) An RNAqueous Midi Kit was utilized to extract and purify RNA from cell lines. Human tissue RNA was prepared using TRIzol® per manufacturer's protocol followed by purification using the RNAqueous Midi Kit. The O.D. 260/280 ratio of the mRNA was at least 1.8 and the 18s/28s bands were verified on a 1% agarose gel. cDNA was prepared from purified RNA samples using High Capacity cDNA Reverse Transcriptase Kit per manufacturer's instruction. TaqMan®Fast Universal PCR Master Mix and TaqMan®FAMTM dye-labeled probes including POLR2A (Hs00172187_m1) (normalization control), SCD1 (Hs01682761_m1), HSPA5 (Hs99999174_m1), CEBPβ (CEBPB Hs00270923_s1), GADD45A (Hs00169255_m1), DDIT3 (Hs01090850_m1), and HERPUD1 (Hs01124269_m1) were combined with prepared cDNA samples to analyze relative mRNA expression via qPCR. Fold change values were compared between normal and tumor, non-target scrambled lentiviral and target lentiviral infected, and DMSO vs. A939572 treated samples using the ΔΔCt method (Schmittgen T D, Livak K J. Analyzing real-time PCR data by the comparative C(T) method. Nat Protoc. 2008; 3:1101-8).
as §5
To determine the involvement of SCD1 expression in renal cell carcinoma proliferation, two separate lentiviral constructs were designed to express shRNA molecules having the ability to reduce SCD1 expression. The first lentiviral construct was designed to express an shRNA designated SCD780. The sequence of SCD780 was as follows: 5′-[…]-3′ (SEQ ID NO:1). The second lentiviral construct was designed to express an shRNA designated SCD1200. The sequence of SCD1200 was as follows: 5′-[…]-3′ (SEQ ID NO:2). A non-target lentiviral construct was designed as a control.

SCD1 [12] = assay: Lentiviral shRNA knockdown of SCD1 in normal renal epithelial cells (K359N and K360N); type: cell-based, human
Description: as §6
as §7, with “Fold change values were compared between normal and tumor, non-target scrambled lentiviral and target lentiviral infected, and DMSO vs. A939572 treated samples using the ΔΔCt method (Schmittgen T D, Livak K J. Analyzing real-time PCR data by the comparative C(T) method. Nat Protoc. 2008; 3:1101-8).” left out

[13] = system: Caki1 and A498 ccRCC cell lines; assay: Proliferation assay of shSCD lentiviral infected cells; type: cell-based, human; conditions: vs NT control or treated normal kidney cells (K359N and K360N), counted after five days
Description: as §4, §6
(§8) Media alone and BSA supplemented media served as control groups. Proliferation assay of NT control versus shSCD780 infected Caki1 and A498 cells cultured in media with or without OABSA were counted after five days. […] SCD1 knockdown by lentiviral infection was confirmed at the protein level (FIG. 3B).

[14] = system: Caki1 and A498 ccRCC cell lines; assay: PARP cleavage immunoblot of shSCD lentiviral infected cells; type: cell-based, human
Description: as §6, §5, §8

Caki1 and A498 cells = assay: Western blot of ER stress markers; type: cell-based, human; conditions: 75 nM drug or shSCD780 knockdown, 48 hours
Description: as §5

A498 cells = assay: qPCR of five ER stress genes; type: cell-based, human
Description: as §7
(§9) In order to validate the specificity of ER stress induction mediated by both A939572 and shSCD780, rescue assays were performed using OA-BSA in Caki1 and A498 cells qPCR analysis of five ER stress genes identified in the gene array including BiP, CHOP, HERPUD1 (homocysteine-inducible, ER-stress inducible, ubiquitin-like-1), GADD45a (DNA damage inducible transcript 1, DDIT1), and CEBPβ (CCAAT/enhancer binding protein beta) were examined.

Caki1 cells = assay: qPCR of five ER stress genes; type: cell-based, human
Description: as §7, §9

[15] = system: ATF6 luciferase reporter in Caki1 cells
Description: (§10) For transient transfection, Caki1 and A498 cells were transfected using Lipofectamine 2000. Cells treated with DMSO vs. A939572 or infected using shSCD780 lentiviral constructs vs. NT control were harvested after 48 hrs using Promega's Dual Luciferase assay kit per the manufacturer's protocol and luciferase activity was measured using a Veritas Luminometer; reported as relative luminescence.
(§11) Caki1 and A498 cells transfected with an ATF6 luciferase reporter (p5xATF6-GL3) were treated with a 75 nM dose of A939572 or were infected with shSCD780. Resulting luminescence was measured after 48 hours.

[16] = system: ATF6 luciferase reporter in A498 cells
Description: as §10, §11

N.N.[Cl][Pt][Cl] [Cisplatin]
growth inhibition [1]: minimal growth inhibitory effects | growth inhibition [2]: minimal growth inhibitory effects | growth inhibition (T24 bladder cancer cells): minimal growth inhibitory effects

CNC(=O)c1cc(Oc2ccc(NC(=O)Nc3ccc(Cl)c(C(F)(F)F)c3)cc2)ccn1 [Sorafenib]
effective concentrations [3]: 1 to 10 µM

CC(=O)O[C@H]1C(=O)[C@@]2(C)[C@H]([C@H](OC(=O)c3ccccc3)[C@]3(O)C[C@H](OC(=O)[C@H](O)[C@@H](NC(=O)c4ccccc4)c4ccccc4)C(C)=C1C3(C)C)[C@]1(OC(C)=O)CO[C@@H]1C[C@@H]2O [Taxol]
growth inhibition [4]: growth inhibitory | growth inhibition [5]: growth inhibitory | growth inhibition [6]: growth inhibitory | growth inhibition (FF1 cells): minimal growth inhibitory effects

Cn1nnc2c(C(N)=O)ncn2c1=O [Temodar]
growth inhibition (A375 melanoma cells): dose responsively inhibits growth | growth inhibition (Mela 11 melanoma cells): not

CO[C@H]1C[C@@H]2CC[C@@H](C)[C@@](O)(O2)C(=O)C(=O)N2CCCC[C@H]2C(=O)O[C@H]([C@H](C)C[C@@H]2CC[C@@H](OC(=O)C(C)(CO)CO)[C@H](OC)C2)CC(=O)[C@H](C)/C=C(\C)[C@@H](O)[C@@H](OC)C(=O)[C@H](C)C[C@H](C)/C=C/C=C/C=C/1C [Temsirolimus, temsirolimus]
reduction in cell proliferation [7]: limited reduction in cell proliferation | CHOP expression (ER stress) (A498 ccRCC xenografts [8]): induction of CHOP, although to a lesser extent | SCD1 expression (SCD1 [9]): decrease SCD1 expression | phosphorylated mTOR expression (A498 ccRCC xenografts [10]; compared to the Placebo and A939572 groups): decreased expression | angiogenesis, intensity of microvessel density (CD31) (A498 ccRCC xenografts [10]; cumulative scores not considered significant): slight decrease | cell death, cleaved caspase-3 (CC3) (A498 ccRCC xenografts [10]; vs placebo / other groups): moderate increase | proliferation, percent positivity of nuclear Ki67 staining (A498 ccRCC xenografts [10]; vs placebo control): decreased proliferation

SCD1200: lentiviral construct expressing shRNA against SCD1, 5′-CGTCCTTATGACAAGAACATT-3′ (SEQ ID NO:2)
SCD1 mRNA expression levels (SCD1 [11]): reduced SCD1 mRNA expression levels | SCD1 polypeptide expression levels (SCD1 [11]): reduced SCD1 polypeptide expression levels | SCD1 mRNA expression levels (SCD1 [12]): reduced SCD1 mRNA expression levels | proliferation / growth [13]: reduced proliferation | apoptosis by PARP cleavage [14]: induction of apoptosis

shSCD780: lentiviral construct expressing shRNA against SCD1, 5′-CTACGGCTCTTTCTGATCATT-3′ (SEQ ID NO:1)
protein expression of ER stress markers BiP, CHOP, spliced-XBP1 (Caki1 and A498 cells): amplified expression | ER stress gene expression with addition of OA-BSA (A498 cells; A498, + OA-BSA): successfully blocked | mRNA expression of ER stress genes BiP, CHOP, HERPUD1, GADD45a, CEBPβ (A498 cells; A498, vs DMSO+BSA or NT control): 4 of the 5 were significantly induced | ER stress gene expression with addition of OA-BSA (Caki1 cells; Caki1, + OA-BSA): successfully blocked | mRNA expression of ER stress genes BiP, CHOP, HERPUD1, GADD45a, CEBPβ (Caki1 cells; Caki1, vs DMSO+BSA or NT control): all of the ER stress genes were significantly induced | SCD1 mRNA expression levels (SCD1 [11]): reduced SCD1 mRNA expression levels | SCD1 polypeptide expression levels (SCD1 [11]): reduced SCD1 polypeptide expression levels | SCD1 mRNA expression levels (SCD1 [12]): reduced SCD1 mRNA expression levels | proliferation / growth [13]: significant decreases in growth | proliferation / growth ([13]; listed as SCD780): reduced proliferation | apoptosis by PARP cleavage [14]: induction of apoptosis | reporter activation with addition of OA-BSA ([15]; Caki1, + OA-BSA): significantly reduced reporter activation | luciferase activity, fold change induction ([15]; Caki1, +BSA, 75 nM A939572 or shSCD780, 48 hours, vs DMSO and NT controls): 1.7 fold change | reporter activation with addition of OA-BSA ([16]; A498, + OA-BSA): significantly reduced reporter activation | luciferase activity, fold change induction ([16]; A498, +BSA, 75 nM A939572 or shSCD780, 48 hours, vs DMSO and NT controls): 2.0 fold change
